Measured values as given in patent publication US6706740B2, “Fungicidal heterocyclic aromatic amides and their compositions, methods of use and preparation” (Dow AgroSciences LLC, priority 1999, dated 2004).
Like-named read-outs stand apart in the source and are kept apart here.

Tests used:
[1] = test system: Magnaporthe grisea (Pyricularia oryzae—PYRIOR); assay: microbe, parasite or virus in culture; format: cell-based; conditions: Pyricularia oryzae, read-out: PYRIOR in vitro Growth Inhibition
[2] = test system: Rhizoctonia solani (RHIZSO); assay: microbe, parasite or virus in culture; format: cell-based; conditions: Rhizoctonia solani, read-out: RHIZSO in vitro Growth Inhibition
[3] = test system: Mycosphaerella graminicola (Septoria tritici—SEPTTR); assay: In vitro fungal growth inhibition, Mycosphaerella graminicola (SEPTTR); format: cell-based; conditions: Zymoseptoria tritici, read-out: SEPTTR in vitro Growth Inhibition
[4] = test system: Stagonospora nodorum (Leptosphaeria nodorum—LEPTNO); assay: In vitro fungal growth inhibition, Stagonospora nodorum (LEPTNO); format: cell-based; conditions: Leptosphaeria, read-out: LEPTNO in vitro Growth Inhibition
[5] = test system: Ustilago maydis (USTIMA); assay: microbe, parasite or virus in culture; format: cell-based; conditions: Mycosarcoma maydis, read-out: USTIMA in vitro Growth Inhibition
[6] = test system: Phytophthora infestans (PHYTIN); assay: microbe, parasite or virus in culture; format: cell-based; conditions: Phytophthora infestans, read-out: PHYTIN in vitro Growth Inhibition
[7] = test system: Phytophthora infestans—PHYTIN; assay: whole plant or invertebrate; format: in vivo; conditions: Phytophthora, in Solanum lycopersicum, 24 h, read-out: PHYTIN in vivo 1 Day Protectant
[8] = test system: Puccinia recondita—PUCCRT; assay: Brown Rust of Wheat, in vivo whole plant, 24 Hour Protectant; conditions: for pest or weed control at 100 ppm: Puccinia, read-out: PUCCRT in vivo 1 Day Protectant
[9] = test system: Erysiphe graminis—ERYSGT; assay: Powdery Mildew of Wheat, in vivo whole plant, 24 Hour Protectant; conditions: Erysiphe, read-out: ERYSGT in vivo 1 Day Protectant
[10] = test system: Septoria tritici—SEPTTR; assay: Leaf Blotch of Wheat, in vivo whole plant, 24 Hour Protectant; conditions: for pest or weed control at 100 ppm: Zymoseptoria tritici, 24 h, control of fungal infection vs untreated plants, read-out: SEPTTR in vivo 1 Day Protectant
[11] = test system: Leptosphaeria nodorum—LEPTNO; assay: Glume Blotch of Wheat, in vivo whole plant, 24 Hour Protectant; conditions: for pest or weed control at 100 ppm: Leptosphaeria, read-out: LEPTNO in vivo 1 Day Protectant
[12] = wheat plants sprayed at 100 ppm, inoculated after 24 hours, control of fungal infection vs untreated plants
[13] = wheat plants sprayed at 100 ppm, inoculated after 24 hours
[14] = 100 ppm spray, 24 hour protectant, wheat, control of fungal infection vs untreated plants
[15] = 100 ppm spray, 24 hour protectant, wheat
[16] = 100 ppm spray, wheat, 24 hour protectant, control of fungal infection vs untreated plants
[17] = 100 ppm spray, wheat, 24 hour protectant
[18] = 100 ppm spray, wheat, 24 hour protectant, % control of fungal infection vs untreated plants

| Structure (SMILES) | inhibition at 25 ppm [1] | inhibition at 25 ppm [2] | inhibition at 25 ppm [5] | inhibition at 25 ppm [6] | pest or weed control at 100 ppm [7] | inhibition at 25 ppm ([3]; 25 ppm in growth medium) | inhibition at 25 ppm ([4]; 25 ppm in growth medium) | pest or weed control at 100 ppm [8, 14] | pest or weed control at 100 ppm [9, 14] | pest or weed control at 100 ppm [10, 15] | pest or weed control at 100 ppm [11, 14] | pest or weed control at 100 ppm [9, 16] | pest or weed control at 100 ppm [10, 17] | pest or weed control at 100 ppm [11, 16] | pest or weed control at 100 ppm [8, 16] | further results |
| --- | --- | --- | --- | --- | --- | --- | --- | --- | --- | --- | --- | --- | --- | --- | --- | --- |
| O=C(Nc1ccc(Oc2cccc(C(F)(F)F)c2)cc1)c1nc(Br)ccc1O [Compound 498] | < 80% | < 80% | < 80% | < 80% | < 25% |  |  |  |  |  |  |  |  |  |  | inhibition at 25 ppm ([3]; 25 ppm in the growth medium): < 80%; inhibition at 25 ppm ([4]; 25 ppm in the growth medium): < 80%; pest or weed control at 100 ppm [8, 12]: 25 to 74%; pest or weed control at 100 ppm [9, 12]: < 25%; pest or weed control at 100 ppm [10, 13]: 25 to 74%; pest or weed control at 100 ppm [11, 12]: < 25% |
| COc1ccnc(C(=O)NCCCc2cccnc2)c1O [Compound 243] | < 80% | < 80% | < 80% | < 80% | < 25% | < 80% | < 80% | 25 to 74% | < 25% | 25 to 74% | 25 to 74% |  |  |  |  |  |
| COC(=O)C(COC(=O)C(COC(=O)C(C)C)Cc1ccccc1)NC(=O)c1nccc(OC)c1O (centres unmarked) [Compound 349] | < 80% | < 80% | < 80% | < 80% | < 25% | < 80% | < 80% |  |  |  |  | < 25% | < 25% | < 25% |  | PUCCRT in vivo 1 Day Protectant [8, 16]: + + |
| Cc1cccc(CNC(=O)c2ncccc2O)c1 [Compound 222] | < 80% | < 80% | < 80% | < 80% | < 25% | < 80% | < 80% | 25 to 74% | < 25% | < 25% | < 25% |  |  |  |  |  |
| O=C(Nc1ccc(Cl)cc1)c1ncccc1O [Compound 213] | < 80% | < 80% | < 80% | > 80% | 25 to 74% | > 80% | < 80% |  | < 25% | < 25% | < 25% |  |  |  |  | PUCCRT in vivo 1 Day Protectant [8, 14]: + + |
| COc1ccnc(C(=O)NC(COC(=O)CC(C)OC(=O)C(C)C)C(=O)OC(C)C)c1O (centres unmarked) [Compound 352] | < 80% | < 80% | < 80% | < 80% | < 25% | < 80% | < 80% |  |  |  |  | < 25% | < 25% | < 25% | 25 to 74% |  |
| COc1ccnc(C(=O)Nc2ccc(Oc3cccc(C)c3)cc2)c1O [Compound 416] | > 80% | < 80% | < 80% | < 80% | < 25% | > 80% | < 80% |  |  |  |  | < 25% | < 25% | < 25% | 25 to 74% |  |
| COc1ccnc(C(=O)NC(COC(=O)C(Cc2ccccc2)C(C)OC(=O)C(C)C)C(=O)OC(C)C)c1O (centres unmarked) [Compound 355] | < 80% | < 80% | < 80% | < 80% | < 25% | < 80% | < 80% |  |  |  |  | < 25% | < 25% | < 25% | 25 to 74% |  |
| COC(=O)C(CO)NC(=O)c1nccc(OC)c1O (centres unmarked) [Compound 340] | < 80% | < 80% | < 80% | < 80% | < 25% | < 80% | < 80% |  |  |  |  | 25 to 74% | < 25% | 25 to 74% | < 25% |  |
| O=C(Nc1cccc(Oc2ccc(C(F)(F)F)cc2)c1)c1nc(Br)ccc1O [Compound 496] | < 80% | < 80% | < 80% | < 80% | < 25% |  |  |  |  |  |  |  |  |  |  | inhibition at 25 ppm ([3]; 25 ppm in the growth medium): < 80%; inhibition at 25 ppm ([4]; 25 ppm in the growth medium): < 80%; pest or weed control at 100 ppm [8, 12]: 25 to 74%; pest or weed control at 100 ppm [9, 12]: < 25%; pest or weed control at 100 ppm [10, 13]: 25 to 74%; pest or weed control at 100 ppm [11, 12]: < 25% |
| COc1ccnc(C(=O)NC2CC(C)(C)C=CC=C2C)c1O (centres unmarked) [Compound 278] | < 80% | < 80% | < 80% | < 80% | < 25% | < 80% | < 80% | 25 to 74% | < 25% | 25 to 74% | 25 to 74% |  |  |  |  |  |
| COc1ccnc(C(=O)Nc2cccc(Oc3ccc(C)cc3)c2)c1O [Compound 414] | > 80% | < 80% | < 80% | < 80% | 25 to 74% | > 80% | > 80% |  |  |  |  | < 25% | < 25% | < 25% | 25 to 74% |  |
| COc1ccnc(C(=O)N[C@H]2COC(=O)[C@H](Cc3ccccc3)[C@@H](O)[C@H](C)OC2=O)c1O [Compound 383] | < 80% | < 80% | < 80% | < 80% | < 25% | < 80% | < 80% |  |  |  |  | < 25% | < 25% | < 25% | 25 to 74% |  |
| COc1ccnc(C(=O)N[C@H]2COC(=O)[C@H](Cc3ccccc3)[C@@H](OC(=O)C(C)C)[C@H](C)OC2=O)c1OC(=O)c1ccco1 [Compound 673] | < 80% | < 80% | < 80% | < 80% | < 25% | < 80% | < 80% |  |  |  |  |  |  |  |  | PUCCRT in vivo 1 Day Protectant [8, 18]: + +; pest or weed control at 100 ppm [9, 18]: < 25%; SEPTTR in vivo 1 Day Protectant [10, 18]: + +; LEPTNO in vivo 1 Day Protectant [11, 18]: + + |
| COc1ccnc(C(=O)NC2CC(C)(C)CC(C)(C(=O)CCCc3ccccc3)C2)c1O (centres unmarked) [Compound 276] | < 80% | < 80% | < 80% | < 80% | < 25% | < 80% | > 80% | 25 to 74% | < 25% | 25 to 74% |  |  |  |  |  | LEPTNO in vivo 1 Day Protectant [11, 14]: + + |
| O=C(N[C@H]1CC2CC1[C@@H]1CCC[C@H]21)c1ncccc1O (some centres unmarked) [Compound 206] | > 80% | > 80% | < 80% | < 80% | < 25% | > 80% | > 80% | < 25% | < 25% | < 25% | < 25% |  |  |  |  |  |
